Entries after “also recorded” stand apart in the source; their conditions may differ.
How the values were obtained:
[1] = Enhancement activity of adjuvant in DHA composition on artificial skin (VitroSkin), color by colorimeter; details: for color enhancement activity on artificial skin (in words): adjuvant 0.5-2 wt.% in composition with DHA; for color quality (delta a*/delta b*, visual examination) in words: composition with DHA on artificial skin
Description: General procedure for in vitro testing: DHA, 2.5 weight percent, and 0.5 to 2.0 weight percent adjuvant were formulated into the base (as described in Table 1). About 20 mg of resulting composition was applied to VitroSkin® made available from IMS Company and applied in a circular pattern having a diameter around 2.4 cm. The artificial skin was pre-hydrated under 50% RH for 24 hours before use, and the skin was kept at a temperature of 35° C. under constant relative humidity (RH, 50%). Color development was evaluated with a colorimeter as defined below.
Enhancement activity of pyrrole-2-carboxylic acid was carried out on artificial skin when formulated in a ready-to-use composition with ingredients as described in Table 4 and color was detected and assessed with a colorimeter.

[2] = Enhancement activity of adjuvant in DHA/glycine solution, color change by colorimeter; details: adjuvant 0.5-2 wt.% in solution with DHA and glycine
Excerpt: A control solution was made as follows: Mixing vials were charged with 2.5 weight percent glycine, 2.5 percent by weight DHA and 0.2 M citric/citrate buffer solution to produce the desired control solution, pH 5.6. The balance of the control solutions was water. Compositions consistent with the invention were made as follows: about 0.5 to 2.0 weight percent adjuvant, 2.5 weight percent DHA and 2.5 weight percent glycine were combined, resulting in compositions consistent with this invention with water as the balance. The initial pH of the resulting adjuvant comprising solution was measured and adjusted with NaOH or citric acid, if necessary, to yield an adjuvant comprising solution, pH of about 5.6. The solutions were placed in a 35° C. oven and color change was assessed visually (by taking photos) and by measuring L*a*b* values utilizing a conventional colorimeter. L*a*b* values of the solutions were measured and assessed as set forth below.
Enhancement activity of pyrrole-2-carboxylic acid in solution was carried out on the solutions described in Table 2 and the color of the reaction system was detected and assessed with a colorimeter.
Delta L* was used to characterize color change whereby the larger Delta L* value reflects darker coloring. […] Pyrrole-2-carboxylic acid, therefore, is believed to catalyze the DHA/glycine Maillard reaction.

Row | Compound | color enhancement activity on artificial skin (in words) [1] | DHA enhancement activity / color enhancement in solution (in words) [2] | DHA enhancement activity / color enhancement in solution (in words) ([2]; listed as 1-H-indole-2-carboxylic acid) | color quality (delta a*/delta b*, visual examination) in words [1]
1 | CC(=O)c1ccco1 [2-acetylfuran] | color enhancement of artificial skin |  |  | 
2 | O=C(O)c1ccco1 [2-furoic acid] | color enhancement of artificial skin |  |  | 
3 | O=C(O)c1cc2ccccc2[nH]1 [1H-indole-2-carboxylic acid] |  | excellent color enhancement | excellent coloring properties | 
4 | CC(=O)c1ccc[nH]1 [2-acetylpyrrole] | color enhancement of artificial skin | surprisingly good color enhancement |  | 
5 | COC(=O)c1ccc[nH]1 [methyl-2-pyrrole carboxylate] |  | surprisingly good color enhancement |  | 
6 | O=C(CO)CO [DHA, 1,3-dihydroxy-2-propanone, reference compound] |  |  |  | yellowish
7 | CC(=O)c1cccn1C [2-acetyl-1-methylpyrrole] | color enhancement of artificial skin | surprisingly good color enhancement |  | 
8 | Cn1cccc1C(=O)O [1-methyl-2-pyrrolecarboxylic acid] | color enhancement activity; also recorded: excellent DHA enhancer | excellent DHA enhancement activity |  | more natural color via visual examination; also recorded: better than that of the control at all concentrations tested
9 | O=C(O)c1ccc[nH]1 [pyrrole-2-carboxylic acid] | DHA color enhancement activity at all tested concentrations | significantly enhanced DHA activity at all concentrations tested |  | longer lasting and more natural color

From US8398959B2, “Compositions and methods for imparting a sunless tan with functionalized adjuvants” (Conopco, Inc., priority 2010, dated 2013)
